Results published in US9439845B2, “Glycyrrhetinimidyl hydroxyproline alkyl esters and protected derivatives thereof” (REVLON CONSUMER PRODUCTS CORPORATION, priority 2013, dated 2016).

Key:
Assay type in all cases: cell-based
[1] = test system: collagen I in normal human dermal fibroblasts (NHDF); assay: Total Collagen I expression in fibroblasts (immunofluorescence, INCell Analyzer 1000); conditions: for % Control (total Collagen I) / % Stimulation (total Collagen I) / Mean Collagen I (AU): 72 hours; for Mean Collagen I (AU): AU = fluorescence intensity/number of cells
Experimental: (§1) It is believed that the glycyrrhetinimidyl hydroxyproline alkyl esters of the present invention are useful for promoting collagen production in human skin. In an exemplary test, normal human dermal fibroblasts (NHDF) were cultured in culture medium for 24 hours. The medium was then replaced with culture medium containing or not (control) the test compound or the reference compound (Vitamin C) or the reference mix (Vitamin C and TGF-β). The cells were then incubated for 72 hours. After incubation, the culture medium was then collected and the cells were washed and fixed. Cells were then labeled with a primary antibody (anti-collagen I or anti-collagen III). […] An INCell Analyzer 1000 was used to take images of each well. The labeling was quantified by the measurement of the fluorescence intensity or fluorescence area normalized to the total number of cells.

[2] = test system: collagen III in normal human dermal fibroblasts (NHDF); assay: Total Collagen III expression in fibroblasts (immunofluorescence, INCell Analyzer 1000); conditions: for % Control (total Collagen III) / % Stimulation (total Collagen III) / Mean Collagen III (AU): 72 hours
Experimental: as §1

[3] = test system: extracellular collagen III in normal human dermal fibroblasts (NHDF); assay: Extracellular Collagen III expression in fibroblasts (fiber deposition); conditions: for % Control (extracellular Collagen III) / % Stimulation (extracellular Collagen III) / Mean Collagen III (fibers): 72 hours
Experimental: as §1
(§2) A collagen release promoter, such as Vitamin C, could be used to release the intracellular collagen into the extracellular matrix. Note that in Tables 3 and 4 below, the apparent inhibition of glycyrrhetinimidyl hydroxyproline methyl ester on extracellular collagen fiber deposition is due to an artifact effect.

[4] = test system: extracellular collagen I in normal human dermal fibroblasts (NHDF); assay: Extracellular Collagen I expression in fibroblasts (fiber deposition); conditions: for % Control (extracellular Collagen I) / % Stimulation (extracellular Collagen I) / Mean Collagen I (fibers): 72 hours
Experimental: as §1, §2

[5] = 30 μM, apparent inhibition said to be an artifact
[6] = qualitative analysis of the images
[7] = 10 μM, apparent inhibition said to be an artifact

Substance: glycyrrhetinimidyl hydroxyproline methyl ester
- % Control (total Collagen I) ([1]; 3.3 μM): 102%
- % Stimulation (total Collagen I) ([1]; 3.3 μM): 2%
- Mean Collagen I (AU) ([1]; 3.3 μM): 222721 AU
- % Control (total Collagen I) ([1]; 10 μM): 97%
- % Stimulation (total Collagen I) ([1]; 10 μM): −3%
- Mean Collagen I (AU) ([1]; 10 μM): 210888 AU
- % Control (total Collagen I) ([1]; 30 μM): 126%
- % Stimulation (total Collagen I) ([1]; 30 μM): 26%
- Mean Collagen I (AU) ([1]; 30 μM): 274297 AU
- increase of the NHDF's neosynthesis of collagen I ([1]; maximum over tested concentrations (text summary of Table 1)): up to 26%
- % Control (total Collagen III) ([2]; 3.3 μM): 105%
- % Stimulation (total Collagen III) ([2]; 3.3 μM): 5%
- Mean Collagen III (AU) ([2]; 3.3 μM): 177399 AU
- % Control (total Collagen III) ([2]; 10 μM): 118%
- % Stimulation (total Collagen III) ([2]; 10 μM): 18%
- Mean Collagen III (AU) ([2]; 10 μM): 199984 AU
- % Control (total Collagen III) ([2]; 30 μM): 142%
- % Stimulation (total Collagen III) ([2]; 30 μM): 42%
- Mean Collagen III (AU) ([2]; 30 μM): 240374 AU
- increase of the NHDF's neosynthesis of collagen III ([2]; maximum over tested concentrations (text summary of Table 2)): up to 42%
- % Control (extracellular Collagen III) ([3]; 3.3 μM): 105%
- % Stimulation (extracellular Collagen III) ([3]; 3.3 μM): 5%
- Mean Collagen III (fibers) ([3]; 3.3 μM): 34 fibers
- % Control (extracellular Collagen III) ([3]; 10 μM): 107%
- % Stimulation (extracellular Collagen III) ([3]; 10 μM): 7%
- Mean Collagen III (fibers) ([3]; 10 μM): 34 fibers
- % Control (extracellular Collagen III) [3, 5]: 78%
- % Stimulation (extracellular Collagen III) [3, 5]: −22%
- Mean Collagen III (fibers) [3, 5]: 25 fibers
- effect on collagen III extracellular fiber deposition [3, 6]: no significant effect
- extracellular release of collagen III ([3]; text summary of Table 4): no significant increase
- % Control (extracellular Collagen I) ([4]; 3.3 μM): 102%
- % Stimulation (extracellular Collagen I) ([4]; 3.3 μM): 2%
- Mean Collagen I (fibers) ([4]; 3.3 μM): 63 fibers
- % Control (extracellular Collagen I) [4, 7]: 79%
- % Stimulation (extracellular Collagen I) [4, 7]: −21%
- Mean Collagen I (fibers) [4, 7]: 48 fibers
- % Control (extracellular Collagen I) [4, 5]: 70%
- % Stimulation (extracellular Collagen I) [4, 5]: −30%
- Mean Collagen I (fibers) [4, 5]: 43 fibers
- effect on collagen I extracellular fiber deposition [4, 6]: no significant effect
- extracellular release of collagen I ([4]; summary of Table 3): no significant increase
